# Values quoted from earlier work as cited in patent US12269021B2, “Artificial protein catalyst” (Glytech, Inc., priority 2019, dated 2025).
# Experiments:
# [1] = tested on: αvβ3 and αvβ5 integrins; details: integrins overexpressed on the cancer cell surface
# [2] = tested on: various cancer cell strains
Compound,integrin inhibition [1],cytotoxic activity [2]
cRGD,inhibits,–
CC(C)=CCC/C(C)=C/CC/C(C)=C/COc1ccc2ccc(=O)oc2c1 [Umbelliprenin],–,cytotoxic activity
